Reference: patent publication US10322995B2, “Substituted cyano cycloalkyl penta-2,4-dienes, cyano cycloalkyl pent-2-en-4-ynes, cyano heterocyclyl penta-2,4-dienes and cyano heterocyclyl pent-2-en-4-ynes as active substances against abiotic plant stress” (BAYER CROPSCIENCE AKTIENGESELLSCHAFT, priority 2014, dated 2019)

How the values were obtained:
Brassica napus (BRSNS) = experiment: In vivo analyses Part C: drought stress, appearance vs stressed control plants in categories (BRSNS); design: key: 0: no positive effect; 10: slight positive effect; 20: clear positive effect; 30: strong positive effect; details: appearance vs stressed control plants after recovery phase, efficacy range of 3-4 pots
Method: Seeds of monocotyledonous and dicotyledonous crop plants were sown in sandy loam in plastic or wood-fibre pots, covered with soil or sand and cultivated in a greenhouse under good growth conditions. The test plants were treated at the early leaf stage (BBCH10-BBCH13). To assure uniform water supply before commencement of stress, the potted plants were supplied with water by dam irrigation prior to substance application. The inventive compounds were first formulated as wettable powders (WP) or dissolved in a solvent mixture. The further dilution was effected with water supplemented with 0.2% wetting agent (e.g. agrotin). The finished spray liquor was sprayed onto the green parts of the plant at an equivalent water application rate of 600 I/ha. Substance application was followed immediately by stress treatment of the plants. For this purpose, the wood-fibre pots were transferred in plastic inserts in order to prevent them from subsequently drying out too quickly. Drought stress was induced by gradual drying out under the following conditions: “Day”: 14 hours with illumination at 26-30° C. “Night”: 10 hours without illumination at 18-20° C. The duration of the respective stress phases was guided mainly by the condition of the stressed control plants. It was ended (by re-irrigating and transfer to a greenhouse with good growth conditions) as soon as irreversible damage was observed on the stressed control plants. The end of the stress phase was followed by an about 4-7-day recovery phase, during which the plants were once again kept under good growth conditions in a greenhouse. The duration of the recovery phase was guided mainly by when the trial plants had attained a state which enabled visual scoring of potential effects, and was therefore variable. Once this juncture had been reached, the appearance of the plants treated with test substances was recorded in comparison to the stressed control plants by the following categories: [table] For each substance and dosage, 3-4 pots were treated and evaluated. BRSNS=Brassica napus

[1] = target: T1, phosphatase ABI1 via the co-regulator RCAR11/PYR1 (Arabidopsis thaliana, UniProt O49686+P49597); experiment: In vitro assay: inhibition of the phosphatase ABI1 via the co-regulator RCAR11/PYR1, MUP dephosphorylation, fluorescence; assay type: biochemical; details: concentration of 5 mM of the substance in a solution of DMSO and water; MUP dephosphorylation, fluorescence 460 nm
T1 sequence (O49686 1-191): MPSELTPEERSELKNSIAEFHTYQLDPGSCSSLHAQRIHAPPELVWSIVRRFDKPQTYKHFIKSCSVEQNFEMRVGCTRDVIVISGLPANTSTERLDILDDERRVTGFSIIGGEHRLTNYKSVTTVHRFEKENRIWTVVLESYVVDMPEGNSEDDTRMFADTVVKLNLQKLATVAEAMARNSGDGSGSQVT
T1 sequence (P49597 1-434): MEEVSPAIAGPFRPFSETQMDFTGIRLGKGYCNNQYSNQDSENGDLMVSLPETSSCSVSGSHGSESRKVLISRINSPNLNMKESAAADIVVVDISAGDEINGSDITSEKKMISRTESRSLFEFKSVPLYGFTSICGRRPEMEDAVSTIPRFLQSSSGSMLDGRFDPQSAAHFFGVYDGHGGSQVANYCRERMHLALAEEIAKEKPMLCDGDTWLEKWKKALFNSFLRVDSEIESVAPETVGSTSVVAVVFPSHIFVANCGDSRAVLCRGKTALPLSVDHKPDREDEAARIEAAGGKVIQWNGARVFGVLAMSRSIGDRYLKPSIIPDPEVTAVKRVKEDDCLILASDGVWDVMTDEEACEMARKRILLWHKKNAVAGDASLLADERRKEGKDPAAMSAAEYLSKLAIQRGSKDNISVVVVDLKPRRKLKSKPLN
Excerpt: Effects of the phytohormone abscisic acid (ABA) on the behaviour of plants under abiotic stress and the mechanism of action of ABA are described in the literature (cf. Abrams et al, WO97/23441, Cutler, Park et al. Science, 2009, 324, 1068; Grill et al. Science, 2009, 324, 1064; Tanokura et al. Biophysics, 2011, 7, 123; Schroeder et al. Plant J. 2010, 61, 290). Therefore, it is possible with the aid of a suitable in vitro test system to derive a correlation between the action of ABA and the stress response of a plant under abiotic stress. Under drought stress, plants form the phytohormone abscisic acid (ABA). This binds, along with a co-regulator (Regulatory Component of ABA-Receptor=RCAR according to Grill et al. Science, 2009, 324, 1064 or PYR/PYL according to Cutler et al. Science, 2009, 324, 1068), to a phosphatase (e.g. ABI1, a type 2C protein phosphatase, also abbreviated to PP2C) and inhibits its activity. As a result, a “downstream” kinase (e.g. SnRK2) is no longer dephosphorylated. This kinase, which is thus active, via phosphorylation of transcription factors (e.g. AREB/ABF, vgl. Yoshida et al., Plant J. 2010, 61, 672), switches on a genetic protection programme to increase drought stress tolerance.
The assay described hereinafter utilizes the inhibition of the phosphatase ABI1 via the co-regulator RCAR11/PYR1 aus Arabidopsis thaliana.
For the determination of activity, the dephosphorylation of 4-methylumbelliferyl phosphate (MUP) was measured at 460 nm. The in vitro assay was conducted in Greiner 384-well PS microplates F-well, using two controls: a) dimethyl sulphoxide (DMSO) 0.5% (f.c.) and b) 5 μM (f.c.) abscisic acid (ABA). […] The substance solution thus obtained, if necessary, was stirred with esterase from porcine liver (EC 3.1.1.1) at room temperature for 3 h and centrifuged at 4000 rpm for 30 min. A total volume of 45 μl was introduced into each cavity of the microplate, having the following composition: • 1) 5 μl of substance solution, i.e. a) DMSO 5% or b) abscisic acid solution or c) the corresponding example compound of the general formula (I) dissolved in 5% DMSO. • 2) 20 μl of enzyme buffer mix, composed of a) 40% by vol. of enzyme buffer (10 ml contain equal proportions by volume of 500 mM Tris-HCl pH8, 500 mM NaCl, 3.33 mM MnCl2, 40 mM dithiothreitol (DTT)), b) 4% by vol. of ABI1 dilution (protein stock solution was diluted so as to give, after addition, a final concentration in the assay of 0.15 μg ABI1/well), c) 4% by vol. of RCAR11 dilution (enzyme stock was diluted so as to give, on addition of the dilution to the enzyme buffer mix, a final concentration in the assay of 0.30 μg enzyme/well), d) 5% by vol. of Tween20 (1%), e) 47% by vol. H2O bi-dist. • 3) 20 μl of substrate mix, composed of a) 10% by vol. of 500 mM Tris-HCl pH8, b) 10% by vol. of 500 mM NaCl, c) 10% by vol. of 3.33 mM MnCl2, d) 5% by vol. of 25 mM MUP, 5% by vol. of Tween20 (1%), 60% by vol. of H2O bi-dist.
Enzyme buffer mix and substrate mix were made up 5 minutes prior to the addition and warmed to a temperature of 35° C. On completion of pipetting of all the solutions and on completion of mixing, the plate was incubated at 35° C. for 20 minutes. Finally, a relative fluorescence measurement was made at 35° C. with a BMG Labtech “POLARstar Optima” microplate reader using a 340/10 nm excitation filter and a 460 nm emission filter. The efficacy of the compounds of the general formula (I) is reported in the table which follows using abscisic acid (No. 64) as comparative substance according to the following classification: ++++ (inhibition≥90%), +++ (90%>inhibition≥70%), ++ (70%>inhibition≥50%), +(50%>inhibition≥30%).
Effects of selected compounds of the general formula (I) in the above-described in vitro assay at a concentration of 5 mM of the substance of the general formula (I) in question in a solution of DMSO and water: […]

| Structure (SMILES) | Effect (BRSNS) (Brassica napus (BRSNS); dosage 25 g/ha) | ABI1 inhibition [1] | Effect (BRSNS) (Brassica napus (BRSNS); dosage 250 g/ha) |
| --- | --- | --- | --- |
| CC/C(C#CC(O)(C1CC1)C1(C#N)CC1)=C/C(=O)OC (stereo not drawn) [I.1-618] | 30 | ++++ (inhibition≥90%) | – |
| CCCOC(=O)C=C(C#CC(O)(C(CC)CC)C1(C#N)CC1)C(F)(F)F (racemic) [I.1-887] | – | +++ (90%>inhibition≥70%) | 10-20 |
| CCCOC(=O)C=C(C=CC(O)(C(C)C)C1(C#N)CC1)CC (racemic) [I.2-507] | – | ++++ (inhibition≥90%) | 30 |
| COC(=O)C=C(C)C=CC(O)(C1CC1)C1(C#N)CC1 (racemic) [I.2-543] | 30 | – | – |
| CCC(C=CC(O)(C(C)C)C1(C#N)CC1)=CC(=O)OC (racemic) [I.2-102] | – | ++++ (inhibition≥90%) | 10-20 |
| COC(=O)C=C(C#CC(O)(c1ccc(C)cc1)C1(C#N)CC1)C(F)(F)F (racemic) [I.1-812] | – | +++ (90%>inhibition≥70%) | 10-20 |
| CC/C(C#CC(O)(C1CCCCC1)C1(C#N)CC1)=C/C(=O)OC (stereo not drawn) [I.1-678] | – | ++++ (inhibition≥90%) | 10-30 |
| CCC(C=CC(O)(C(CC)CC)C1(C#N)CC1)=CC(=O)OC (racemic) [I.2-583] | – | ++++ (inhibition≥90%) | 10-30 |
